The target in this assay is T1, PDGF-receptor beta enzyme comprising the tyrosine kinase domain (Homo sapiens, UniProt P09619).
T1 construct: from amino acid 545 to 1106 of GenBank Access NO: AAA36427
The assay is described as follows: Inhibition of PDGF-receptor kinase activity (cell-free, PLC1 peptide, 33P Flashplate). The note with it: for inhibition at 10 µM: read-out: Percent Inhibition @ 10 uM. The class given is biochemical. In short, it runs like this: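 Recombinant kinase domain (aa 545–1106) phosphorylated a biotinylated PLC1 peptide with 5 μM ATP plus 33P-γ-ATP, in Tris pH 8, MgCl2, Na3VO4 and 1 mM DTT, for 60 min at 30 °C. Retained 33P was counted after washing. IC50 is the concentration halving activity versus no-inhibitor reactions.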

[1] abbreviates: PDGF-R kinase activity, compound at 10 uM.
The mark [2] stands for this setting: PDGF-R kinase activity, read-out: IC50.

Read-outs that look alike come from different tables or passages of the source.

T1 sequence (P09619 545-1106): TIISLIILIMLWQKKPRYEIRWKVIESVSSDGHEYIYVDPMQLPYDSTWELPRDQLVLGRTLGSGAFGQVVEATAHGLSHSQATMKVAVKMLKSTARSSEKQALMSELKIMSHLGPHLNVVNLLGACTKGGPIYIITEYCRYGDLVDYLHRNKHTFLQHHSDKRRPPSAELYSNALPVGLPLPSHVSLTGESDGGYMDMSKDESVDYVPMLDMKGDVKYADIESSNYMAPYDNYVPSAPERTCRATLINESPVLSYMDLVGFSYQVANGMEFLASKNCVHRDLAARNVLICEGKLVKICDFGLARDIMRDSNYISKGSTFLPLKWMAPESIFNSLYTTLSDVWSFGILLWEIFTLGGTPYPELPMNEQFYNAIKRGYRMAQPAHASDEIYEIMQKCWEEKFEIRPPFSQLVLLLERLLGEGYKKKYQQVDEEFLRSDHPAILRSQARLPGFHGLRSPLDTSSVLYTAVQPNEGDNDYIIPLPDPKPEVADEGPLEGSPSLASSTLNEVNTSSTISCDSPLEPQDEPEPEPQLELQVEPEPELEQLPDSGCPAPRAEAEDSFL

What is called inhibition is the change of the read-out against control, counted positive when it falls. For orientation: IC50 means the concentration needed to halve the response being measured. For `Cc1ccc2c(c1)-c1n[nH]c(NCc3ccc(C)c(Cl)c3)c1C2` [Compound 315, (3-Chloro-4-methyl-benzyl)-(7-methyl-2,4-dihydro-indeno[1,2-c]pyrazol-3-yl)-amine], the inhibition at 10 µM under setting [1] was found to be 17.5%. In addition, the IC50 under setting [2] is 1.92 µM.

In the case of `COc1cc2c(cc1OC)-c1n[nH]c(Nc3cccc(C#N)c3)c1C2` [Compound 61, 3-(6,7-Dimethoxy-2,4-dihydro-indeno[1,2-c]pyrazol-3-ylamino)-benzonitrile], the inhibition at 10 µM under setting [1] was found to be 71%. Besides, the IC50 under setting [2] was 0.137 µM. On to `CCOP(=O)(OCC)n1nc(Nc2cccc(F)c2)c2c1-c1cc(OC)c(OC)cc1C2` [Compound 446, [3-(3-Fluoro-phenylamino)-6,7-dimethoxy-4H-indeno[1,2-c]pyrazol-1-yl]-phosphonic acid diethyl ester], for which the inhibition at 10 µM was 93.5%. Also, the IC50 (IC50 (μM), PDGF-R kinase activity) came out at 0.266 µM. Turning to `COc1cc2c(cc1OC)-c1c(c(Nc3cccc(F)c3)nn1COC(C)=O)C2` [Compound 496, Acetic acid 3-(3-fluoro-phenylamino)-6,7-dimethoxy-4H-indeno[1,2-c]pyrazol-1-ylmethyl ester], under setting [1], the inhibition at 10 µM is 88.5%. Besides, the IC50 under setting [2] was determined as 0.0136 µM. As to `Fc1cccc(F)c1CNc1[nH]nc2c1Cc1c(OCCCN3CCOCC3)cccc1-2` [Compound 414, (2,6-Difluoro-benzyl)-[5-(3-morpholin-4-yl-propoxy)-2,4-dihydro-indeno[1,2-c]pyrazol-3-yl]-amine], under setting [1], the inhibition at 10 µM came out at 80.5%. Further, the concentration for half-maximal inhibition (IC50) under setting [2] came out at 0.564 µM. In the same order, the values of `COc1cc2c(cc1OC)-c1n[nH]c(NCc3ccccc3C(F)(F)F)c1C2` [Compound 329, (6,7-Dimethoxy-2,4-dihydro-indeno[1,2-c]pyrazol-3-yl)-(2-trifluoromethyl-benzyl)-amine] are 58% and 0.0762 µM. The corresponding values for `CN(C)CCCOc1ccc2c(c1)Cc1c-2n[nH]c1Nc1ccc(F)cc1` [Compound 159, [6-(3-Dimethylamino-propoxy)-2,4-dihydro-indeno[1,2-c]pyrazol-3-yl]-(4-fluoro-phenyl)-amine] are 92.5% and 0.0989 µM. The corresponding values for `COc1cc2c(cc1OC)-c1n[nH]c(NCc3ccccc3F)c1C2` [Compound 325, (6,7-Dimethoxy-2,4-dihydro-indeno[1,2-c]pyrazol-3-yl)-(2-fluoro-benzyl)-amine] are 61% and 0.0967 µM. For the compound `COCCCOc1ccc2c(c1)Cc1c-2n[nH]c1Nc1cccc(Br)c1` [Compound 141, (3-Bromo-phenyl)-[6-(3-methoxy-propoxy)-2,4-dihydro-indeno[1,2-c]pyrazol-3-yl]-amine], under setting [1], the inhibition at 10 µM turned out to be 83.5%. Moreover, under setting [2], the IC50 was determined as 0.319 µM. With `COc1cc2c(cc1OC)-c1c(c(Nc3cccc(F)c3)nn1Cc1ccc(OC(C)=O)cc1)C2` [Compound 498, Acetic acid 4-[3-(3-fluoro-phenylamino)-6,7-dimethoxy-4H-indeno[1,2-c]pyrazol-1-ylmethyl]-phenyl ester], the inhibition at 10 µM under setting [1] was 51.5%. Under setting [2], the IC50 is 8.33 µM. Consider `CCOc1cc2c(cc1OCC)C(C)c1c-2n[nH]c1Nc1ccc(F)cc1` (stereo not drawn) [Compound 349, (6,7-Diethoxy-4-methyl-2,4-dihydro-indeno[1,2-c]pyrazol-3-yl)-(4-fluoro-phenyl)-amine], for which the inhibition at 10 µM under setting [1] turned out to be 78%. Also, the 50% inhibitory concentration (IC50) under setting [2] is 0.0809 µM. In the same order, the values of `COc1cc2c(cc1OC)-c1c(c(Nc3cccc(F)c3)nn1C(=O)C(C)C)C2` [Compound 431, 1-[3-(3-Fluoro-phenylamino)-6,7-dimethoxy-4H-indeno[1,2-c]pyrazol-1-yl]-2-methyl-propan-1-one] are 84.5% and 0.444 µM. The corresponding values for `COc1ccc(OC)c2c1Cc1c-2n[nH]c1Nc1ccccc1` [Compound 332, (5,8-Dimethoxy-2,4-dihydro-indeno[1,2-c]pyrazol-3-yl)-phenyl-amine] are 90% and 0.372 µM.

As for `COc1ccc(OC)c(Nc2[nH]nc3c2Cc2cc(OC)c(OC)cc2-3)c1` [Compound 48, (6,7-Dimethoxy-2,4-dihydro-indeno[1,2-c]pyrazol-3-yl)-(2,5-dimethoxy-phenyl)-amine], the inhibition at 10 µM under setting [1] was determined as 39%.

`CCOC(=O)Cn1nc(Nc2cccc(F)c2)c2c1-c1cc(OC)c(OC)cc1C2` [Compound 511, [3-(3-Fluoro-phenylamino)-6,7-dimethoxy-4H-indeno[1,2-c]pyrazol-1-yl]-acetic acid ethyl ester]: the inhibition at 10 µM under setting [1] came to 51%. Under setting [2], the IC50 came to 12.5 µM. In the same order, the values of `COc1cc2c(cc1OC)-c1n[nH]c(Nc3cc(C)cc(C)c3)c1C2` [Compound 206, (6,7-Dimethoxy-2,4-dihydro-indeno[1,2-c]pyrazol-3-yl)-(3,5-dimethyl-phenyl)-amine] are 63% and 0.64 µM. The corresponding values for `COc1ccc(OC)c(Nc2[nH]nc3c2C(C)c2ccccc2-3)c1` (stereo not drawn) [Compound 110, (2,5-Dimethoxy-phenyl)-(4-methyl-2,4-dihydro-indeno[1,2-c]pyrazol-3-yl)-amine] are 80% and 0.189 µM. On to `COc1cc2c(cc1OC)-c1nn(CCO)c(Nc3cccc(F)c3)c1C2` [Compound 573, 2-[3-(3-Fluoro-phenylamino)-6,7-dimethoxy-4H-indeno[1,2-c]pyrazol-2-yl]-ethanol], for which the inhibition at 10 µM under setting [1] turned out to be 52%. For `CCOc1cc2c(cc1OCC)C(C)c1c-2n[nH]c1Nc1cccc(Br)c1` (stereo not drawn) [Compound 346, (3-Bromo-phenyl)-(6,7-diethoxy-4-methyl-2,4-dihydro-indeno[1,2-c]pyrazol-3-yl)-amine], the inhibition at 10 µM under setting [1] stood at 98%. Further, the IC50 under setting [2] stood at 0.0739 µM. The corresponding values for `CCOc1cc2c(cc1OCC)-c1n[nH]c(NCc3ccccc3F)c1C2` [Compound 293, (6,7-Diethoxy-2,4-dihydro-indeno[1,2-c]pyrazol-3-yl)-(2-fluoro-benzyl)-amine] are 96.5% and 0.0692 µM.

As to `COc1cc2c(cc1OC)-c1n[nH]c(Nc3cc(Cl)ccc3C)c1C2` [Compound 46, (5-Chloro-2-methyl-phenyl)-(6,7-dimethoxy-2,4-dihydro-indeno[1,2-c]pyrazol-3-yl)-amine], under setting [1], the inhibition at 10 µM turned out to be 51%. Besides, the half-maximal inhibitory concentration (IC50) under setting [2] turned out to be 14.2 µM. The corresponding values for `Clc1cccc(Nc2[nH]nc3c2Cc2c(OCCCN4CCOCC4)cccc2-3)c1` [Compound 392, (3-Chloro-phenyl)-[5-(3-morpholin-4-yl-propoxy)-2,4-dihydro-indeno[1,2-c]pyrazol-3-yl]-amine] are 80% and 0.153 µM. In the same order, the values of `CC(C)Oc1cc2c(cc1OC(C)C)C(C)c1c-2n[nH]c1Nc1ccc(F)c(Cl)c1` (stereo not drawn) [Compound 354, (3-Chloro-4-fluoro-phenyl)-(6,7-diisopropoxy-4-methyl-2,4-dihydro-indeno[1,2-c]pyrazol-3-yl)-amine] are 62% and 2.45 µM. The corresponding values for `CCOc1cc2c(cc1OCC)-c1n[nH]c(NCc3cccc(F)c3)c1C2` [Compound 294, (6,7-Diethoxy-2,4-dihydro-indeno[1,2-c]pyrazol-3-yl)-(3-fluoro-benzyl)-amine] are 81% and 0.264 µM. Take `COCn1nc(Nc2cccc(F)c2)c2c1-c1cc(OC)c(OC)cc1C2` [Compound 472, (6,7-Dimethoxy-1-methoxymethyl-1,4-dihydro-indeno[1,2-c]pyrazol-3-yl)-(3-fluoro-phenyl)-amine]: the inhibition at 10 µM under setting [1] is 35%. As for `COc1cc2c(cc1OC)-c1n[nH]c(Nc3cccc(C(C)O)c3)c1C2` (stereo not drawn) [Compound 278, 1-[3-(6,7-Dimethoxy-2,4-dihydro-indeno[1,2-c]pyrazol-3-ylamino)-phenyl]-ethanol], the inhibition at 10 µM under setting [1] was 97%. Moreover, the IC50 under setting [2] stood at 0.0295 µM. `Cc1ccc(Nc2[nH]nc3c2Cc2cc(Cl)ccc2-3)cc1` [Compound 198, (6-Chloro-2,4-dihydro-indeno[1,2-c]pyrazol-3-yl)-p-tolyl-amine]: the inhibition at 10 µM under setting [1] worked out at 72%. Besides, the IC50 under setting [2] worked out at 0.138 µM. Regarding `COc1ccc2c(c1)Cc1c-2n[nH]c1Nc1cccnc1` [Compound 84, (6-Methoxy-2,4-dihydro-indeno[1,2-c]pyrazol-3-yl)-pyridin-3-yl-amine], the inhibition at 10 µM under setting [1] stood at 86%. Further, under setting [2], the IC50 amounted to 0.71 µM. As to `Oc1cc2c(cc1O)-c1n[nH]c(Nc3cccc(Br)c3)c1C2` [Compound 125, 3-(3-Bromo-phenylamino)-2,4-dihydro-indeno[1,2-c]pyrazole-6,7-diol], the inhibition at 10 µM under setting [1] is 71%. Further, the IC50 under setting [2] was determined as 3.44 µM. On to `COc1cc2c(cc1OC)-c1c(c(Nc3cccc(F)c3)nn1C)C2` [Compound 609], for which, under setting [1], the inhibition at 10 µM was 84%. Further, where the note is “read-out: IC50 (μM) on PDGF-R kinase activity”, the IC50 was found to be 4.68 µM. For the compound `CN(C)CCCOc1cccc2c1Cc1c-2n[nH]c1Nc1cccc(Cl)c1` [Compound 72, (3-Chloro-phenyl)-[5-(3-dimethylamino-propoxy)-2,4-dihydro-indeno[1,2-c]pyrazol-3-yl]-amine], the inhibition at 10 µM under setting [1] was found to be 96%. Under setting [2], the IC50 is 0.283 µM. As for `COCCCOc1cc2c(cc1OC)-c1n[nH]c(Nc3cccc(OC)c3)c1C2` [Compound 244, [7-Methoxy-6-(3-methoxy-propoxy)-2,4-dihydro-indeno[1,2-c]pyrazol-3-yl]-(3-methoxy-phenyl)-amine], the inhibition at 10 µM under setting [1] turned out to be 101%. For the same compound, the IC50 under setting [2] was determined as 0.0002 µM.

Regarding `COc1cc2c(cc1OC)-c1n[nH]c(NCc3cc(F)ccc3F)c1C2` [Compound 323, (2,5-Difluoro-benzyl)-(6,7-dimethoxy-2,4-dihydro-indeno[1,2-c]pyrazol-3-yl)-amine], under setting [1], the inhibition at 10 µM is 60.5%. For the same compound, the IC50 under setting [2] came to 8.71 µM.

(Values after patent US7196110B2, “N-substituted tricyclic 3-aminopyrazoles as inhibitors for the treatment of cell proliferative disorders” (Janssen Phamaceutica N.V., priority 2002, dated 2007).)
